Measurements taken from publication PMC10287566, “Signaling-specific inhibition of the CB1 receptor for cannabis use disorder: phase 1 and phase 2a randomized trials” (Nature Medicine, 2023).

Assays:
rats = assay: Irwin test and body temperature (GLP); type: in vivo; details: rats, 2, 9 and 36 mg kg^−1 oral
Protocol: The study involved four groups of six male Wistar rats weighing between 154.0 g and 185.9 g. […] On study day, animals were first scored by the Irwin standardized observation battery, and body temperature was measured. […] Irwin scores and measurement of body temperature were done again at 1, 3, 6, 8 and 24 h after dose.

DIO mice = assay: Food intake and body weight in diet-induced obese mice, repeated treatment; type: in vivo; details: mice, acute and repeated 28 d, highest dose tested 15 mg/kg
Protocol: Body weight and food intake were studied because they are reduced by repeated treatment with rimonabant both in mice[31] and in humans. DIO mice were used because the effects of CB1 antagonists are of greater amplitude in obese mice than in lean mice. Male C57BL/6J mice (8 weeks old) were fed ad libitum with a high-fat diet (HFD) for 8 weeks before the start of the pharmacological treatments. During pharmacological treatments, the HFD was maintained, and food intake and body weight were measured daily. The food consumed was calculated by subtracting the food left in the hoppers from the initial pre-weighed amount.

`COc1ccc(CO[C@H]2CC[C@@]3(C)C(=CC[C@H]4[C@@H]5CC[C@H](C(C)=O)[C@@]5(C)CC[C@@H]43)C2)cc1` [AEF0117, 3β-(4-methoxybenzyloxy)pregn-5-en-20-one] was tested, and the “effect on spontaneous behavior in the home cage (Irwin test)” value (rats) was “had no effect” and the “Overall effect: inhibition of spontaneous food-intake” value (DIO mice) was “No”.
